From PubChem BioAssay (NCI)
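96-well plates; 48 h exposure; 5 concentrations. Endpoints by linear interpolation between flanking doses. Not reached: highest tested concentration assigned. TGI denotes the concentration required for complete inhibition of growth.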

What was measured:
Assay in all cases: growth of human tumour cells (NCI), 48 h
[1] = test system: SN12C renal
[2] = test system: SK-OV-3 ovarian
[3] = test system: EKVX NSCLC
[4] = test system: OVCAR-8 ovarian
[5] = test system: MALME-3M melanoma
[6] = test system: SF-268 CNS
[7] = test system: COLO 205 colon
[8] = test system: TK-10 renal
[9] = test system: K-562 leukemia
[10] = test system: RPMI-8226 leukemia

Row | SMILES | TGI [1] [µM] | TGI [2] [µM] | TGI [3] [µM] | TGI [4] [µM] | TGI [5] [µM] | TGI [6] [µM] | TGI [7] [µM] | TGI [8] [µM] | TGI [9] [µM] | TGI [10] [µM]
1 | CCOP(=O)(OCC)Oc1c(OC)c2[nH]c(C(=O)OC)cc2c2c(C(=O)O)c[nH]c12 | > 100 | > 100 | > 100 | > 100 | > 100 | > 100 | > 100 | > 100 | > 100 | –
2 | ClCc1nc2ccccc2[nH]1 | > 100 | – | > 100 | > 100 | > 100 | > 100 | > 100 | > 100 | > 100 | > 100
3 | COC(=O)C(Cc1c[nH]c2ccccc12)NC(=O)C(Cc1cnc[nH]1)NC(=O)C1CCC(=O)N1C(=O)OCc1ccccc1 (centres undefined) | – | – | > 100 | > 100 | > 100 | – | > 100 | > 100 | > 100 | > 100
4 | Cc1nc2c(c(N3CCN(C)CC3)n1)Cc1ccccc1-2 | – | > 100 | > 100 | > 100 | > 100 | > 100 | > 100 | 88.1 | > 100 | > 100
5 | COC(=O)C1=C(C)NC(=O)N2[C@@H](CCOCc3ccccc3)CC[C@@H]12 | – | > 50 | > 50 | > 50 | > 50 | > 50 | > 50 | > 50 | > 50 | > 50
6 | O=c1[nH]c(Nc2ccc(Br)c(C(F)(F)F)c2)nc2nc[nH]c12 | > 100 | > 100 | > 100 | > 100 | > 100 | > 100 | 41 | > 100 | – | > 100
7 | CN(O)C(=O)CCC(NC(=O)CCC(N)C(=O)O)C(=O)NCC(=O)O (centres undefined) | > 100 | > 100 | > 100 | > 100 | – | > 100 | > 100 | > 100 | > 100 | > 100
8 | c1ccc2c3c(ccc2c1)-c1[nH]ncc1CCO3 | > 80.4 | > 100 | 45 | > 90.1 | > 100 | 98.8 | 99.7 | – | > 100 | –
9 | Fc1cc(C2=Nn3c(COc4ccccc4Cl)nnc3S/C2=C\c2ccc(Cl)cc2)c(Cl)cc1Cl | – | > 100 | > 100 | > 100 | – | 9.06 | – | > 100 | > 100 | > 100
10 | CCOP(=O)(CC(=O)C1CC1)OCC | > 100 | > 100 | > 100 | > 100 | > 100 | > 100 | > 100 | > 100 | > 100 | –
11 | COC(=O)C1CCC(=O)N1C(c1ccc(OC)cc1)c1cc(OC)c(OC)c(OC)c1 (centres undefined) | > 100 | > 100 | > 100 | > 100 | – | > 100 | 0.802 | > 100 | > 75.8 | –
12 | CCOC(=O)CNC(=O)C(CCC(=O)N(C)O)NC(=O)CCC(N)C(=O)O (centres undefined) | > 100 | > 100 | > 100 | > 100 | – | > 100 | > 100 | > 100 | > 100 | > 100
13 | C=C1C(C(=O)OC)[C@H]1C(=O)OC (some centres undefined) | > 100 | > 100 | > 100 | > 100 | – | > 100 | > 100 | > 100 | – | > 100
14 | COc1c2c(c3c(c1OC)c(=O)c1ccccc1n3C)OCO2 | > 100 | > 100 | > 100 | > 100 | – | > 100 | > 100 | > 100 | > 100 | > 100
15 | Cc1c(NC(=S)Nc2ccc([N+](=O)[O-])cc2)c(=O)n(-c2ccccc2)n1C | – | > 100 | > 100 | > 100 | > 100 | > 100 | > 100 | > 100 | > 100 | > 100
16 | COc1ccc(S(=O)(=O)Nc2ccc(-c3csc(N4C(=O)/C(=C/c5ccccc5[N+](=O)[O-])N=C4c4ccccc4)n3)cc2)cc1Cl | > 100 | > 100 | – | > 100 | > 100 | > 100 | > 100 | > 100 | > 100 | –
17 | O=S(=O)(O)c1ccc(N=Nc2ccccc2)cc1 | > 100 | > 100 | > 100 | > 100 | – | > 100 | > 100 | > 100 | > 100 | > 100
18 | O=P1(c2ccccc2)C(c2ccccc2)CCC1c1ccccc1 (centres undefined) | > 100 | > 100 | > 100 | > 100 | – | > 100 | > 100 | > 100 | > 100 | 78.2
